Test results: ChEMBL document CHEMBL4813975, “Discovery and characterization of a novel glucose-6-phosphate dehydrogenase (G6PD) inhibitor via high-throughput screening” (Bioorg Med Chem Lett, 2021)
Activity calls are given as the source filed them. No cut-off for these calls is given here.

How the values were obtained:
[1] = biological target: T1, Glucose-6-phosphate 1-dehydrogenase (Homo sapiens, UniProt P11413); assay: Inhibition of G6PD (unknown origin) assessed as reduction in 6-phospho-D-glucono-1,5-lactone and NADPH production using glucose-6-phosphate and NADP+ as substrate incubated for 15 mins by UV absorption photometry assay
T1 sequence (P11413 whole entry): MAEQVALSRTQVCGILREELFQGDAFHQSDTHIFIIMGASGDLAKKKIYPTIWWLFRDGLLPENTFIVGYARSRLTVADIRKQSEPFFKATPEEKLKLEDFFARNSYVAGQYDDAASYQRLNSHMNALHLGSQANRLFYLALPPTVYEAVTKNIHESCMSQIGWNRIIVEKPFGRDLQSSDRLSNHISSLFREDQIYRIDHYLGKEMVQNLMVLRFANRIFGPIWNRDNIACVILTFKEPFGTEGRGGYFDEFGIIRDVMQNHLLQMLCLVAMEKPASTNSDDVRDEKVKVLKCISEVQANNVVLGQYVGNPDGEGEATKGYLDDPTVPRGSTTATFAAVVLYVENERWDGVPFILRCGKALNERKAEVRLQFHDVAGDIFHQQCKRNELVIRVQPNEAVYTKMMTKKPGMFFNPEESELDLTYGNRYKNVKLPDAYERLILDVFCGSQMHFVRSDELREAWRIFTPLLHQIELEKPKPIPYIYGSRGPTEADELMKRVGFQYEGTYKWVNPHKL

[2] = biological target: T1, Glucose-6-phosphate 1-dehydrogenase; assay: Reversible inhibition of G6PD (unknown origin) using glucose-6-phosphate and NADP+ as substrate measured after dilution of 12XIC50 to 0.6XIC50 by dilution based analysis
OVCAR-3 = assay: Inhibition of colony formation in human OVCAR-3 cells overexpressing G6PD incubated for 14 days by crystal violet staining based assay; format: functional, cell-based
[3] = biological target: T1, Glucose-6-phosphate 1-dehydrogenase; assay: Non-competitive inhibition of G6PD (unknown origin) using glucose-6-phosphate and varying concentrations of NADP+ as substrate by Michaelis-Menten analysis
[4] = biological target: T1, Glucose-6-phosphate 1-dehydrogenase; assay: Competitive inhibition of G6PD (unknown origin) using glucose-6-phosphate and varying concentrations of NADP+ as substrate by Michaelis-Menten analysis
[5] = biological target: T1, Glucose-6-phosphate 1-dehydrogenase; assay: Competitive inhibition of G6PD (unknown origin) using varying concentrations of G6P and NADP+ as substrate by Michaelis-Menten analysis
[6] = biological target: T1, Glucose-6-phosphate 1-dehydrogenase; assay: Binding affinity to G6PD (unknown origin) assessed as equilibrium dissociation constant by surface plasmon resonance assay
[7] = biological target: T1, Glucose-6-phosphate 1-dehydrogenase; assay: Inhibition of G6PD in human OVCAR-3 cells assessed as thermal instability of the enzyme by CETSA analysis; format: cell-based
[8] = biological target: T1, Glucose-6-phosphate 1-dehydrogenase; assay: Non-competitive inhibition of G6PD (unknown origin) using varying concentrations of G6P and NADP+ as substrate by Michaelis-Menten analysis

O=c1c(O)c(-c2ccc(O)c(O)c2)oc2cc(O)cc(O)c12
IC50 [1]: 31 µM

O=C(/C=C/c1ccc(O)c(O)c1)O[C@@H]1C[C@](O)(C(=O)O)C[C@@H](OC(=O)/C=C/c2ccc(O)c(O)c2)[C@H]1O
IC50 [1]: 37.7 µM

OC[C@H]1O[C@@H](Oc2cc(O)cc(/C=C/c3ccc(O)cc3)c2)[C@H](O)[C@@H](O)[C@@H]1O [PICEID]
IC50 [1]: 74.5 µM

C[C@]12CC[C@H](O)CC1=CC[C@@H]1[C@@H]2CC[C@]2(C)C(=O)CC[C@@H]12 [PRASTERONE]
IC50 [1]: 12.5 µM

COc1cc(O)c2c(c1)oc(=O)c1c3cc(O)c(O)cc3oc21 [WEDELOLACTONE]
inhibition [2]: Active
EC50 (OVCAR-3; OVCAR-3, 336 h): 10.6 µM
inhibition (OVCAR-3; time 14.0 day): Dose-Dependent Effect
IC50 [1]: 5.18 µM
Ki [3]: 5.79 µM
Ki [4]: 1.19 µM
Ki [5]: 2.54 µM
Kd [6]: 3.64 µM
inhibition [7]: Active
Ki [8]: 9.94 µM
